One experiment has as its target T1, Taq polymerase (Thermus aquaticus, UniProt P19821).
T1 construct: purchased New England Biolabs (Ipswich, Mass.)
The experiment can be described thus: PCR-based screen and amplification of DNA containing unnatural base pairs, Taq (Example 1). Format: biochemical. Here is the method:
(§1) The triphosphates of the 6 group were prepared from the previously reported nucleosides (Kubelka, T., Slavetinska, L., Eigner, V. and Hocek, M. Synthesis of 2,6-disubstituted pyridin-3-yl C-2′-deoxyribonucleosides through chemoselective transformations of bromo-chloropyridine C-nucleosides. Org. Biomol. Chem., 11, 4702-4718) according to Ludwig, J. and Eckstein, F. Rapid and efficient synthesis of nucleoside 5′-0-(1-thiotriphosphates), 5′-triphosphates and 2′,3′-cyclophosphorothioates using 2-chloro-4H-1,3,2-benzodioxaphosphorin-4-one. J. Org. Chem., 54, 631-635. The purity of all other triphosphates was confirmed by MALDI-TOF and UV-VIS. Taq and OneTaq DNA polymerases were purchased from New England Biolabs (Ipswich, Mass.). A mixture of dNTPs was purchased from Fermentas (Glen Burnie, Md.). SYBR Green I Nucleic Acid Gel Stain (10,000×) was purchased from Life Technologies (Carlsbad, Calif.). The synthesis of the DNA templates, D8 (Malyshev, D. A., Dhami, K., Quach, H. T., Lavergne, T., Ordoukhanian, P., Torkamani, A. and Romesberg, F. E. Efficient and sequence-independent replication of DNA containing a third base pair establishes a functional six-letter genetic alphabet. Proc. Natl. Acad. Sci. USA, 109, 12005-12010), used for screening rounds 1-5, and D6 (Malyshev, D. A., Seo, Y. J., Ordoukhanian, P. and Romesberg, F. E. PCR with an expanded genetic alphabet. J. Am. Chem. Soc., 131, 14620-14621), used for all other amplifications, was described previously. Sanger sequencing was carried out as described previously (Malyshev, D. A., Dhami, K., Quach, H. T., Lavergne, T., Ordoukhanian, P., Torkamani, A. and Romesberg, F. E. Efficient and sequence-independent replication of DNA containing a third base pair establishes a functional six-letter genetic alphabet. Proc. Natl. Acad. Sci. USA, 109, 12005-12010). Raw Sanger sequencing traces were used to determine the percent retention of the unnatural base pairs, which was converted to fidelity per doubling, as described (Malyshev, D. A., Dhami, K., Quach, H. T., Lavergne, T., Ordoukhanian, P., Torkamani, A. and Romesberg, F. E. Efficient and sequence-independent replication of DNA containing a third base pair establishes a functional six-letter genetic alphabet. Proc. Natl. Acad. Sci. USA, 109, 12005-12010; Malyshev, D. A., Seo, Y. J., Ordoukhanian, P. and Romesberg, F. E. PCR with an expanded genetic alphabet. J. Am. Chem. Soc., 131, 14620-14621).
(§2) All PCR amplifications were performed in a CFX Connect Real-Time PCR Detection System (Bio-Rad), in a total volume of 25 μL using the following conditions: 1× OneTaq reaction buffer, 0.5× Sybr Green I, MgSO4 adjusted to 4.0 mM, 0.2 mM of each dNTP, 50 μM of each unnatural triphosphate, […] of Primer1 and Primer2 (See Table 2), and 0.02 U/μl of the DNA polymerase. Other conditions specific for each round of screening are described in Table 3. Amplified products were purified using DNA Clean and Concentrator-5 spin columns from Zymo Research (Irvine, Calif.). After purification, the PCR products were sequenced on a 3730 DNA Analyzer (Applied Biosystems) to determine the retention of the unnatural base pair as described below. Fidelity was characterized from unnatural base pair (UBP) retention as determined by sequencing with Primer1 on a 3730 DNA Analyzer (Applied Biosystems).
(§3) Specific PCR assay conditions. PCR with the most promising UBPs was carried out with the conditions as described in Table 3. PCR products were further purified on […] gels, followed by single band excision and subsequent clean up using the Zymo Research Zymoclean Gel DNA Recovery Kit. After elution with 20 μl of water, the DNA concentration was measured using fluorescent dye binding (Quant-iT dsDNA HS Assay kit, Life Technologies), and purified amplicons were sequenced in triplicate with both Primer1 and Primer2 to determine UBP retention and thus amplification fidelity. […]

A further experiment concerns OneTaq polymerase. As to the kind of experiment: PCR-based screen and amplification of DNA containing unnatural base pairs, OneTaq (Example 1). The note with it: for Amplification: -^a = no amplification was detected. Format: biochemical. Here is the method:
as §1, §2, §3

The mark [1] stands for this setting: Taq, 10 s Extension, 52 cycles, D6 template.
Where [2] appears, read: OneTaq, 1 min Extension, 52 cycles, D6 template.
[3] abbreviates: OneTaq, 16 cycles, 1 min extension.
[4] abbreviates: ^b 10 pg D6 template, 24 cycles, OneTaq polymerase, 68° C. for 10 s.
[5] abbreviates: ^a 100 pg D8 template, 16 cycles, Taq polymerase, 68° C. for 60 s.

The record followed here is patent publication US11634451B2, “Method for the site-specific enzymatic labelling of nucleic acids in vitro by incorporation of unnatural nucleotides” (The Scripps Research Institute, priority 2013, dated 2023).

Marks after values point to notes of the source that are not given here.

T1 sequence (P19821 whole entry): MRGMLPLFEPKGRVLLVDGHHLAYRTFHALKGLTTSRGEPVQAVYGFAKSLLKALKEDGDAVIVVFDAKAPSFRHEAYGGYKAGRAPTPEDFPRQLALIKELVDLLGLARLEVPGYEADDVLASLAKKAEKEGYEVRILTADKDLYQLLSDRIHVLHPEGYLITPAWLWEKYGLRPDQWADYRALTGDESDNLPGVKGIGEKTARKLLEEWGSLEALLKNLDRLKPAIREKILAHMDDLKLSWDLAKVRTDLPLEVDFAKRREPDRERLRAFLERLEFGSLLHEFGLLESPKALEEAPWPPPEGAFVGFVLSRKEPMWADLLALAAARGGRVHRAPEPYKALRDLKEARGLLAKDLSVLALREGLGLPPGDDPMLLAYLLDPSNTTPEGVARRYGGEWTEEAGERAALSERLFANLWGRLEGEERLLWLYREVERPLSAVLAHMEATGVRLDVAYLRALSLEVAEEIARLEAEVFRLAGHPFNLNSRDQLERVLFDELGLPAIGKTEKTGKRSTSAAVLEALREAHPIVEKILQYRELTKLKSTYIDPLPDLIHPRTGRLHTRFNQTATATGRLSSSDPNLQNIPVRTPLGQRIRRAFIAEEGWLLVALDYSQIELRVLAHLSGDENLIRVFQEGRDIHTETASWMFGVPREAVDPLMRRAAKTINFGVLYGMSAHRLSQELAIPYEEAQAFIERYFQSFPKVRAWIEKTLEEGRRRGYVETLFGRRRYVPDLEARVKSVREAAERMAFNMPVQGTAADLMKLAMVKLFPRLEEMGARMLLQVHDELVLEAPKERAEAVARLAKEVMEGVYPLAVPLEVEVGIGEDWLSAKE

For `C#Cc1cc(OC)c([C@H]2C[C@H](O)[C@@H](COP(=O)(O)OP(=O)(O)OP(=O)(O)O)O2)cc1F.O=P(O)(O)OP(=O)(O)OP(=O)(O)OC[C@H]1O[C@@H](n2ccc3ccsc3c2=S)C[C@@H]1O` [TPT3-FEMO], on Taq polymerase (setting [1]), the “Amplification, ×10^12” value is 5.0 ×10^12; the “Fidelity per Doubling, %” value is 99.44 ± 0.09%; the “Retention, %” value turned out to be 79 ± 3%. Moreover, in the experiment with OneTaq polymerase (setting [2]), the “Amplification, ×10^12” value is given as 10.4 ×10^12; the “Fidelity per Doubling, %” value is reported as 99.55 ± 0.03%; the “Retention, %” value is 82.2 ± 1.0%.
Regarding `COc1cc(C)ccc1[C@H]1C[C@H](O)[C@@H](COP(=O)(O)OP(=O)(O)OP(=O)(O)O)O1.O=P(O)(O)OP(=O)(O)OP(=O)(O)OC[C@H]1O[C@@H](n2ccc3ccsc3c2=S)C[C@@H]1O` [TPT3-MMO2], in the experiment with OneTaq polymerase (setting [3]), the “Fidelity, %” value is on record as 99.06 ± 0.40%; the “Retention, %” value is 90.95 ± 3.63%; the Amplification is given as 1096.
Take `C#Cc1cc(OC)c([C@H]2C[C@H](O)[C@@H](COP(=O)(O)OP(=O)(O)OP(=O)(O)O)O2)cc1F.O=P(O)(O)OP(=O)(O)OP(=O)(O)OC[C@H]1O[C@@H](n2ccc3ncccc3c2=S)C[C@@H]1O` [SNICS-FEMO]: in the experiment with OneTaq polymerase (setting [4]), the “Retention, %” value was 95^b %.
Turning to `COc1cc(I)c(F)cc1[C@H]1C[C@H](O)[C@@H](COP(=O)(O)OP(=O)(O)OP(=O)(O)O)O1.O=P(O)(O)OP(=O)(O)OP(=O)(O)OC[C@H]1O[C@@H](n2cc(F)c3ccsc3c2=S)C[C@@H]1O` [FTPT3-FIMO], at Taq polymerase (setting [1]), the “Amplification, ×10^12” value was 4.8 ×10^12; the “Fidelity per Doubling, %” value is given as 99.60 ± 0.09%; the “Retention, %” value worked out at 84 ± 3%. In addition, in the experiment with OneTaq polymerase (setting [2]), the “Amplification, ×10^12” value is reported as 8.2 ×10^12; the “Fidelity per Doubling, %” value worked out at 99.65 ± 0.08%; the “Retention, %” value is listed as 86 ± 3%.
`C#Cc1cc(OC)c([C@H]2C[C@H](O)[C@@H](COP(=O)(O)OP(=O)(O)OP(=O)(O)O)O2)cc1F.O=P(O)(O)OP(=O)(O)OP(=O)(O)OC[C@H]1O[C@@H](n2ccc3ccccc3c2=S)C[C@@H]1O` [SICS-FEMO]: in the experiment with OneTaq polymerase (setting [4]), the “Retention, %” value is 92^b %.
With `COc1cc2ccccc2cc1[C@H]1C[C@H](O)[C@@H](COP(=O)(O)OP(=O)(O)OP(=O)(O)O)O1.O=P(O)(O)OP(=O)(O)OP(=O)(O)OC[C@H]1O[C@@H](n2cc(F)c3ccsc3c2=S)C[C@@H]1O` [FTPT3-NaM], at Taq polymerase (setting [1]), the “Amplification, ×10^12” value is recorded as 3.7 ×10^12; the “Fidelity per Doubling, %” value turned out to be 99.76 ± 0.15%; the “Retention, %” value is recorded as 91 ± 6%. In the experiment on OneTaq polymerase (setting [2]), the “Amplification, ×10^12” value is reported as 7.0 ×10^12; the “Fidelity per Doubling, %” value was determined as 99.76 ± 0.06%; the “Retention, %” value is reported as 90 ± 2%.
Turning to `COc1cc(Cl)ccc1[C@H]1C[C@H](O)[C@@H](COP(=O)(O)OP(=O)(O)OP(=O)(O)O)O1.O=P(O)(O)OP(=O)(O)OP(=O)(O)OC[C@H]1O[C@@H](n2ccc3ccsc3c2=S)C[C@@H]1O` [TPT3-CIMO], in the experiment on OneTaq polymerase (setting [4]), the “Retention, %” value was 90^b %.
With `COc1cc(N=[N+]=[N-])ccc1[C@H]1C[C@H](O)[C@@H](COP(=O)(O)OP(=O)(O)OP(=O)(O)O)O1.O=P(O)(O)OP(=O)(O)OP(=O)(O)OC[C@H]1O[C@@H](n2cc(F)c3ccsc3c2=S)C[C@@H]1O` [FTPT3-ZMO], on Taq polymerase (setting [5]), the “Retention, %” value is recorded as 88^a %.
On the same count and under the same terms, for `COc1cc2ccccc2cc1[C@H]1C[C@H](O)[C@@H](COP(=O)(O)OP(=O)(O)OP(=O)(O)O)O1.O=P(O)(O)OP(=O)(O)OP(=O)(O)OC[C@H]1O[C@@H](n2ccc3ncccc3c2=S)C[C@@H]1O` [SNICS-NaM] the value was 90^a %.
Consider `Cc1ccc([C@H]2C[C@H](O)[C@@H](COP(=O)(O)OP(=O)(O)OP(=O)(O)O)O2)c(N)n1.O=P(O)(O)OP(=O)(O)OP(=O)(O)OC[C@H]1O[C@@H](n2ccc3ccsc3c2=S)C[C@@H]1O` [TPT3-TOK586], for which, in the experiment with OneTaq polymerase (setting [3]), the “Fidelity, %” value is <85 ^b %; the “Retention, %” value is recorded as <50 ^b %; the Amplification came out at 948. In addition, the “Retention, %” value in the experiment on OneTaq polymerase (OneTaq, 16 cycles, 1 min extension, listed as dTPT3-dTOK586) is recorded as “poorly replicated”.
Regarding `COc1cc2ccccc2cc1[C@H]1C[C@H](O)[C@@H](COP(=O)(O)OP(=O)(O)OP(=O)(O)O)O1.O=P(O)(O)OP(=O)(O)OP(=O)(O)OC[C@H]1O[C@@H](n2ccc3ccccc3c2=S)C[C@@H]1O` [SICS-NaM], the “Retention, %” value on Taq polymerase (setting [5]) is recorded as 99^a %.
Turning to `CSc1nc(C)ccc1[C@H]1C[C@H](O)[C@@H](COP(=O)(O)OP(=O)(O)OP(=O)(O)O)O1.O=P(O)(O)OP(=O)(O)OP(=O)(O)OC[C@H]1O[C@@H](n2ccc3ccsc3c2=S)C[C@@H]1O` [TPT3-TOK588], in the experiment on OneTaq polymerase (setting [3]), the “Fidelity, %” value is listed as 94.99 ± 1.13%; the “Retention, %” value worked out at 61.98 ± 7.09%; the Amplification was found to be 666. For the same compound, the “Retention, %” value with OneTaq polymerase (OneTaq, 16 cycles, 1 min extension, listed as dTPT3-dTOK588) worked out at 62%.
`COc1cc(I)ccc1[C@H]1C[C@H](O)[C@@H](COP(=O)(O)OP(=O)(O)OP(=O)(O)O)O1.O=P(O)(O)OP(=O)(O)OP(=O)(O)OC[C@H]1O[C@@H](n2ccc3ncccc3c2=S)C[C@@H]1O` [SNICS-IMO]: the “Retention, %” value with OneTaq polymerase (setting [4]) is reported as 88^b %.
`COc1cc(N=[N+]=[N-])ccc1[C@H]1C[C@H](O)[C@@H](COP(=O)(O)OP(=O)(O)OP(=O)(O)O)O1.O=P(O)(O)OP(=O)(O)OP(=O)(O)OC[C@H]1O[C@@H](n2ccc3ccsc3c2=S)C[C@@H]1O` [TPT3-ZMO]: the “Retention, %” value in the experiment on OneTaq polymerase (setting [4]) was 86^b %.
`Cc1ccc([C@H]2C[C@H](O)[C@@H](COP(=O)(O)OP(=O)(O)OP(=O)(O)O)O2)c(Cl)n1.O=P(O)(O)OP(=O)(O)OP(=O)(O)OC[C@H]1O[C@@H](n2ccc3ccsc3c2=S)C[C@@H]1O` [TPT3-TOK580]: in the experiment with OneTaq polymerase (setting [3]), the “Fidelity, %” value is <85 ^b %; the “Retention, %” value is reported as <50 ^b %; the Amplification amounted to 1056. Moreover, the “Retention, %” value in the experiment with OneTaq polymerase (OneTaq, 16 cycles, 1 min extension, listed as dTPT3-dTOK580) is “poorly replicated”.
Turning to `COc1ccc([C@H]2C[C@H](O)[C@@H](COP(=O)(O)OP(=O)(O)OP(=O)(O)O)O2)c(OC)c1.O=P(O)(O)OP(=O)(O)OP(=O)(O)OC[C@H]1O[C@@H](n2ccc3ccsc3c2=S)C[C@@H]1O` [TPT3-DMO], in the experiment with OneTaq polymerase (setting [3]), the “Fidelity, %” value is on record as 98.23 ± 0.23%; the “Retention, %” value was 84.02 ± 1.92%; the Amplification was determined as 864.
With `CSc1ccc(C2CC(O)C(CO)O2)c(SC)n1.OCC1OC(n2ccc3ccsc3c2=S)CC1O` (stereo not shown) [TPT3-TOK576], in the experiment on OneTaq polymerase (setting [3]), the “Fidelity, %” value is reported as 98.35 ± 0.14%; the “Retention, %” value came to 85.20 ± 1.12%; the Amplification turned out to be 780. For the same compound, the “Retention, %” value with OneTaq polymerase (OneTaq, 16 cycles, 1 min extension, listed as dTPT3-dTOK576) is recorded as 85%.
Regarding `COc1cc(C#N)ccc1[C@H]1C[C@H](O)[C@@H](COP(=O)(O)OP(=O)(O)OP(=O)(O)O)O1.O=P(O)(O)OP(=O)(O)OP(=O)(O)OC[C@H]1O[C@@H](n2cc(F)c3ccsc3c2=S)C[C@@H]1O` [FTPT3-CNMO], the “Retention, %” value on Taq polymerase (setting [5]) is given as 94^a %.
